Columns and labels:
[1] = test system: primary neuron cultures; assay: Primary neuron cultures, long thin spines and filopodia at DIV7; assay type: cell-based; conditions: 4 hrs: isoflurane 1.5%, PDZ2WT peptide 1 μM or sevoflurane 2.1%
Description: Primary neuron cultures were exposed to control gas (25% O2, 5% CO2, bal N2), isoflurane (1.5% ISO in 25% O2, 5% CO2, bal N2), DETA NONOate NO donor 150 μM and sGC inhibitor ODQ 100 μM for 4 hrs. […] MAP2 dendrite marker, green. Drebrin A/E immature spine/filopodia marker, red. Scale bar is 5 μm. FIG. 20B, Density of long thin spines and filopodia at DIV7 among exposed groups analyzed using Imaris 93.1;
MAP2, green. Drebrin, red. Scale bar is 5 μm. FIG. 21B, show the density of long thin spines and filopodia among exposed groups;
Neuron cultures were exposed to control gas (25% O2, 5% CO2, balance N2) or sevoflurane (2.1% ISO in 25% O2, 5% CO2, balanced N2) for 4 hrs. […] Scale bar is 5 μm. FIG. 22B, Density of long thin spines and filopodia among exposed groups; and […]

[2] = test system: C57BL6 mice; assay: Novel object recognition at PND21; assay type: in vivo; conditions: mean ±SD, in s (unit assumed)
Description: 1.3.2 Anesthesia, Peptide, and Molsidomine Injections. PND7 control and experimental mice were placed in a clear plastic cone and body temperature maintained by a heating blanket set to 35° C. Vital signs and physiological monitoring were assessed using PhysioSuite® (Kent Scientific Corporation, Torrington, Conn., USA) and blood gasses were collected arterially. […] Note that lower concentrations of 02 can be used, e.g., between 20% to 100% 02, including 20%, 25%, 30%, 35%, 40%, 45%, 50%, 55%, 60%, 65%, 70%, 75%, 80%, 85%, 90%, 95%, 96%, 97%, 98%, 99%, and 100% 02. Naïve animals were left with the dams. Anesthesia was initiated with 2.4% ISO in 100% oxygen for 2 min and tapered down to 1.5% within 15 min. Exposure to 1.5% ISO was continued for 3 hours and 45 min (total 4 hours ISO). Control ‘CON’ animals were exposed to 100% oxygen only. At the end of the exposure animals were maintained in oxygen on the heating blanket for 10 min then returned to dams. […] Tao and Johns, 2008. A single injection of peptide was given ip. Separate peptide cohorts were injected in parallel with mice undergoing exposure to anesthesia or O2 control. Purification of fusion peptides was performed by Creative BioMart (Shirley, N.Y.) and verified by Coomassie blue staining and Western blot analysis and then stored in 10% glycerol/phosphate buffered saline at −80° C. until use. The Tat-PSD-95 PDZ2WT and MUT plasmids used to generate proteins containing an amino-terminal, in-frame, 11-amino-acid, minimal transduction domain (residues 47-57 of human immunodeficiency virus Tat protein) termed Tat. […] Fang et al., 2003. The NO donor molsidomine [(N-[ethoxycarbonyl]-3-[4-morpholinosydnomine] (Sigma, St. Louis, Mo.) was injected at 4 mg/kg into mice ip in 100 μL sterile saline as previously described. The NO donor was added immediately following cessation of anesthesia or control (O2) exposure, i.e., the NO donor was injected 4 hours after onset of anesthesia. One of ordinary skill in the art upon review of the present disclosure would appreciate that the NO donor could be administered at other times during anesthesia, including at the onset of anesthesia. Control animals were injected ip with the vehicle (saline).
1.3.7 Novel Object Recognition. The novel object recognition (NOR) procedure was based upon the original Ennaceur et al., 1988, procedure and was used to assess nonspatial hippocampal memory. Clark et al., 2000; Baker and Kim, 2002; Reger et al., 2009. It consisted of a training ‘familiarization’ phase followed by a testing phase. During training, mice were allowed to freely explore within an opaque box (40 cm W×40 cm L×34 cm H) containing two identical objects for 10 min. Data were recorded with a video camera and time spent with each object was recorded using ANYmaze software (Stoelting). Object investigation time was determined by the amount of time the mouse spent in the zone immediately surrounding the object. […] After 2 h, object recognition was tested, using the same procedure as in training except that a novel object was substituted for one of the familiar training objects and mice were allowed to explore for 5 min. Mice inherently prefer to explore novel objects; thus, a preference for the novel object indicates intact memory for the familiar object.

[3] = test system: NR1; assay: Western blot of hippocampal synaptic fractions: NR1; assay type: in vivo; conditions: one day after PND7 mice exposed to isoflurane (1.5% ISO in O2, 4 h)
Description: (§1) One day after PND7 mice were exposed to isoflurane (1.5% ISO in O2, 4 h), we harvested hippocampal tissues for Western blotting to assess the expression of receptors and MAGUKs. […] (N=9). A *p<0.05 was considered significant. […] Data shown as % actin;

[4] = test system: GFP+ neurons; conditions: early exposure to isoflurane, PND30; Kang et al., 2017; cited from earlier work
[5] = test system: PSD-95 or PSD-93 and the NMDA receptor or nNOS; conditions: clinically relevant concentrations; Fang et al., 2003; Tao et al., 2015; cited from earlier work
[6] = test system: NR2B; assay: Western blot of hippocampal synaptic fractions: NR2B; assay type: in vivo; conditions: one day after PND7 mice exposed to isoflurane (1.5% ISO in O2, 4 h)
Description: as §1

[7] = PSD93KO mice exposed to ISO at PND7, tested at PND21
[8] = WT mice exposed at PND7, tested at PND21

SMILES: FC(F)OC(Cl)C(F)(F)F (racemic) [ISO, (RS)-2-chloro-2-(difluoromethoxy)-1,1,1-trifluoroethane]
- long thin spines and filopodia at DIV7 after exposure [1]: loss of long thin and filopodia spines
- investigation time of the known object [2, 7]: 29±13
- investigation time of the novel object [2, 7]: 42±20
- investigation time of the known object [2, 8]: 18±12
- investigation time of the novel object [2, 8]: 29±11
- amount of NR1 in synaptic fractions [3]: decrease
- total dendritic length and Sholl analysis of dendritic complexity [4]: marked overgrowth of dendritic arbors
- PDZ domain-mediated protein interactions [5]: can disrupt PDZ domain-mediated protein-protein interactions in vitro and in vivo
- amount of NR2B in synaptic fractions [6]: significant increase

Source: patent US20220087970A1, “PREVENTION OF ANESTHETIC-INDUCED NEUROCOGNITIVE DYSFUNCTION” (The Johns Hopkins University, priority 2019, published 2022)
